Source: PubChem BioAssay AID540252 (Sanford-Burnham Center for Chemical Genomics, 2011)
pIC50: −log10 of the molar value. The source made the active and inactive calls. The rule behind the calls is not given here.

Target: glucose-6-phosphate dehydrogenase-6-phosphogluconolactonase (Plasmodium falciparum 3D7)
Assay: PfG6PD enzyme inhibitors, direct NADPH readout, dose response, orthogonal assay, biochemical, end-point NADPH detection (AID 540252)
Details: purified PfG6PD enzyme

SMILES	pIC50	IC50
Cc1ccc(C)c(-n2sc3ccc(F)cc3c2=O)c1	4.98	–
O=C1OC(c2ccc3ccccc3c2O)(c2ccc3ccccc3c2O)c2ccccc21	–	> 80 µM (inactive)
OCc1ccccc1SSc1ccccc1CO	4.25	–
O=C1Nc2cc(C(=O)NCCCN3CCCC3)ccc2S/C1=C\c1ccccc1	–	> 80 µM (inactive)
N#Cc1ccc2sn(-c3ccccc3)c(=O)c2c1	4.82	–
O=C(COC(=O)c1ccc2c(c1[N+](=O)[O-])C(=O)c1ccccc1C2=O)NC1CC1	–	> 80 µM (inactive)
CCOc1ccc2ccccc2c1/C=N/NC(=O)c1ccncc1	–	> 80 µM (inactive)
Cc1ccc(S(=O)(=O)C=CS(=O)(=O)c2ccc(C)cc2)cc1	4.47	–
CC(=O)Nc1ccc2c(=O)n(-c3ccccc3)sc2c1	4.86	–
CN(C)Cc1cc(O)c(CN(C)C)cc1O	–	> 80 µM (inactive)
Cc1ccc(-c2c(C(=O)N/N=C/c3ccc(C)o3)nnn2-c2nonc2N)cc1	–	> 80 µM (inactive)
[O-]/[N+](=C/c1cccnc1)c1ccc(Br)cc1	–	> 80 µM (inactive)
C=CCN=c1scc(-c2ccco2)n1/N=C/c1ccc(O)c(O)c1O	–	> 80 µM (inactive)
COc1cc(N)c2ncccc2c1SC	–	> 80 µM (inactive)
O=C1C(Cl)=C(NCCc2ccccc2)C(=O)c2ccccc21	–	> 80 µM (inactive)
CCc1ccccc1N1CSC2=C(C#N)C(c3ccccc3F)CC(=O)N2C1 (configuration not stated)	–	> 80 µM (inactive)
Cc1ccccc1-n1c(-c2ccc3ccccc3n2)n[nH]c1=S	–	> 80 µM (inactive)
COc1ccc(N2CSC3=C(C#N)C(c4ccc(OC)c(OC)c4)CC(=O)N3C2)c(OC)c1 (configuration not stated)	–	> 80 µM (inactive)
CC1=CC(C)(C)Nc2ccc(OC(=O)CN3C(=O)c4cccc5cccc(c45)C3=O)cc21	–	> 80 µM (inactive)
O=c1c2ccccc2sn1-c1ccc(S(=O)(=O)N2CCCC2)cc1	4.44	–
CC1N(C)c2cccc3cccc(c23)N1C	–	> 80 µM (inactive)

SMILES	pIC50	IC50
N#CC(C#N)=C1C=CC=CN1/C(=C\c1ccccc1Cl)C(=O)c1ccccc1	–	> 80 µM (inactive)
Cc1ccc(-n2sc3ccccc3c2=O)cc1	4.61	–
Oc1cc(CNCc2ccccc2)c(O)cc1CNCc1ccccc1	–	> 80 µM (inactive)
CCn1c(SCC(=O)Nc2ccccc2OC)nnc1-c1cnccn1	–	> 80 µM (inactive)
Cc1ccc(N2CC(C(=O)OCC(=O)c3ccc([N+](=O)[O-])cc3)CC2=O)cc1 (configuration not stated)	4.29	–
COc1cccc(CNc2ccc3[nH]c(=O)[nH]c3c2)c1OCc1ccccc1Cl	–	> 80 µM (inactive)
O=c1c2cc(C(F)(F)F)ccc2sn1-c1ccccc1	4.58	–
Oc1ccc(-c2cn3c(n2)SCC3)cc1O	–	> 80 µM (inactive)
Cc1ccccc1OCC(=O)N/N=C/c1ccc(Sc2nc3ccccc3s2)o1	–	> 80 µM (inactive)
COc1ccc(CCn2c(NN=C3CCCCC3)nc3c2c(=O)[nH]c(=O)n3C)cc1	–	> 80 µM (inactive)
Cc1ccc(C(=O)Nc2nnc(S(=O)(=O)N3CCC(C)CC3)s2)cc1	–	> 80 µM (inactive)
O=c1[nH]nc(CNc2ccc(O)cc2)c2ccccc12	–	> 80 µM (inactive)
C=CCOc1ccc(CNc2ccc3[nH]c(=O)[nH]c3c2)cc1OC	–	> 80 µM (inactive)
COC(=O)CCC(=O)OC1(C)C(=O)C2=CN(c3ccccc3)C(c3ccc(OC)cc3)=CC2=C(Br)C1=O (configuration not stated)	–	> 80 µM (inactive)
S=C(NN=Cc1ccccn1)N(Cc1ccccn1)Cc1ccccn1	–	> 80 µM (inactive)
CCOC(=O)c1c2ccc(OCC(=O)NN)cc2n2ccccc12	–	> 80 µM (inactive)
c1ccc(SSc2ccccn2)nc1	4.22	–
Cc1ccsc1/C=N\NC(=O)CC(=O)NCc1ccccc1	–	> 80 µM (inactive)
CC1(C)Cc2c(sc3nc4n(-c5ccccc5)c(=O)c(CCC(=O)O)nn4c(=O)c23)CO1	5.05	–
COc1ccc(C(=O)c2c(C(F)(F)F)oc3c2C(=O)c2ccccc2C3=O)cc1OC	–	> 80 µM (inactive)
COc1ccc(OC)c2c1C(=O)C(Cl)=C(Cl)C2=O	4.63	–
